In ChEMBL document CHEMBL4507268 (2021):

How the values were obtained:
[1] = molecular target: AP2-associated protein kinase 1 (Homo sapiens) (UniProt Q2M2I8); conditions: Compound concentration 1000.0 nM
[2] = molecular target: SRSF protein kinase 2 (Homo sapiens) (UniProt P78362); conditions: Compound concentration 1000.0 nM
[3] = molecular target: Tyrosine-protein kinase SYK (Homo sapiens) (UniProt P43405); conditions: Compound concentration 1000.0 nM
[4] = molecular target: Tyrosine-protein kinase Srms (Homo sapiens) (UniProt Q9H3Y6); conditions: Compound concentration 1000.0 nM
[5] = molecular target: T1, Calcium/calmodulin-dependent protein kinase type IV (Homo sapiens) (UniProt Q16566); conditions: Compound concentration 1000.0 nM
T1 sequence (whole entry): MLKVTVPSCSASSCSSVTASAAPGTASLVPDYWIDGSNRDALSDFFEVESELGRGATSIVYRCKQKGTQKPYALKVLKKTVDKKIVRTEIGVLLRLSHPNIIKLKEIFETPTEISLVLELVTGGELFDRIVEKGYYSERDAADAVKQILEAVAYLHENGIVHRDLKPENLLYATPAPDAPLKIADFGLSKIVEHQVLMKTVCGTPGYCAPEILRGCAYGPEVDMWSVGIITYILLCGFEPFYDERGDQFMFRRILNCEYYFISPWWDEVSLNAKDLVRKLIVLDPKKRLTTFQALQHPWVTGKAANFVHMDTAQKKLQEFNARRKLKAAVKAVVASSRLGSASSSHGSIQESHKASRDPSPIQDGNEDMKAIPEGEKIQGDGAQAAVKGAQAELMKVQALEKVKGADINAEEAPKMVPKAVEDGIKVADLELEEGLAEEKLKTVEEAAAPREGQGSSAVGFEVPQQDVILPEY

[6] = system: Phosphatidylinositol 4,5-bisphosphate 3-kinase catalytic subunit alpha isoform (Homo sapiens), P42336 [H1047L]; conditions: Compound concentration 1000.0 nM
[7] = molecular target: Serine/threonine-protein kinase SIK3 (Homo sapiens) (UniProt Q9Y2K2); conditions: Compound concentration 1000.0 nM
[8] = molecular target: Activated CDC42 kinase 1 (Homo sapiens) (UniProt Q07912); conditions: Compound concentration 1000.0 nM
[9] = molecular target: Serine/threonine-protein kinase PLK2 (Homo sapiens) (UniProt Q9NYY3); conditions: Compound concentration 1000.0 nM
[10] = molecular target: T2, cAMP-dependent protein kinase catalytic subunit PRKX (Homo sapiens) (UniProt P51817); conditions: Compound concentration 1000.0 nM
T2 sequence (whole entry): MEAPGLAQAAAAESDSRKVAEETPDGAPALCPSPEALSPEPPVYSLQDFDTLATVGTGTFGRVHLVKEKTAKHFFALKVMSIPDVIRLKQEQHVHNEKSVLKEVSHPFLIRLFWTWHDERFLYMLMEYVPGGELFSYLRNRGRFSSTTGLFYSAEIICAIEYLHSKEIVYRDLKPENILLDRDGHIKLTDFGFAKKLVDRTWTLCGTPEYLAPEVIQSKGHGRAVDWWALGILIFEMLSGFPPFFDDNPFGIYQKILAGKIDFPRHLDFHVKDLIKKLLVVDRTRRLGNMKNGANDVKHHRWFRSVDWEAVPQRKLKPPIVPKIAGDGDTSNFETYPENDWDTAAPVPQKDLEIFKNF

[11] = molecular target: Receptor-type tyrosine-protein kinase FLT3 (Homo sapiens) (UniProt P36888); conditions: Compound concentration 1000.0 nM
[12] = system: Receptor-type tyrosine-protein kinase FLT3 (Homo sapiens), P36888 [UNDEFINED MUTATION]; conditions: Compound concentration 1000.0 nM
[13] = molecular target: 5-hydroxytryptamine receptor 6 (Homo sapiens) (UniProt P50406); conditions: Compound concentration 10.0 uM
[14] = molecular target: Cyclin-dependent kinase-like 1 (Homo sapiens) (UniProt Q00532); conditions: Compound concentration 1000.0 nM
Chain of Cyclin-dependent kinase-like 1 (Homo sapiens) (Q00532 whole entry): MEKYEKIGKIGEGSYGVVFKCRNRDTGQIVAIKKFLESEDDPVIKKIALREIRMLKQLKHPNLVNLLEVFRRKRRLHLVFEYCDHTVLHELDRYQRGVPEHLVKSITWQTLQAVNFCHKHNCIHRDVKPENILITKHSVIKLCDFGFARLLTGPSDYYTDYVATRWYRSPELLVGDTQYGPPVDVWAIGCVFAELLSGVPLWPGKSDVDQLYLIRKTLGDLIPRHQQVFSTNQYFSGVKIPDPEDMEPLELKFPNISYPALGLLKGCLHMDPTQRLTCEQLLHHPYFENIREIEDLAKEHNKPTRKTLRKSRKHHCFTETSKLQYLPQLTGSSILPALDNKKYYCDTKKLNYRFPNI

Chain of Receptor-type tyrosine-protein kinase FLT3 (Homo sapiens) (P36888 whole entry): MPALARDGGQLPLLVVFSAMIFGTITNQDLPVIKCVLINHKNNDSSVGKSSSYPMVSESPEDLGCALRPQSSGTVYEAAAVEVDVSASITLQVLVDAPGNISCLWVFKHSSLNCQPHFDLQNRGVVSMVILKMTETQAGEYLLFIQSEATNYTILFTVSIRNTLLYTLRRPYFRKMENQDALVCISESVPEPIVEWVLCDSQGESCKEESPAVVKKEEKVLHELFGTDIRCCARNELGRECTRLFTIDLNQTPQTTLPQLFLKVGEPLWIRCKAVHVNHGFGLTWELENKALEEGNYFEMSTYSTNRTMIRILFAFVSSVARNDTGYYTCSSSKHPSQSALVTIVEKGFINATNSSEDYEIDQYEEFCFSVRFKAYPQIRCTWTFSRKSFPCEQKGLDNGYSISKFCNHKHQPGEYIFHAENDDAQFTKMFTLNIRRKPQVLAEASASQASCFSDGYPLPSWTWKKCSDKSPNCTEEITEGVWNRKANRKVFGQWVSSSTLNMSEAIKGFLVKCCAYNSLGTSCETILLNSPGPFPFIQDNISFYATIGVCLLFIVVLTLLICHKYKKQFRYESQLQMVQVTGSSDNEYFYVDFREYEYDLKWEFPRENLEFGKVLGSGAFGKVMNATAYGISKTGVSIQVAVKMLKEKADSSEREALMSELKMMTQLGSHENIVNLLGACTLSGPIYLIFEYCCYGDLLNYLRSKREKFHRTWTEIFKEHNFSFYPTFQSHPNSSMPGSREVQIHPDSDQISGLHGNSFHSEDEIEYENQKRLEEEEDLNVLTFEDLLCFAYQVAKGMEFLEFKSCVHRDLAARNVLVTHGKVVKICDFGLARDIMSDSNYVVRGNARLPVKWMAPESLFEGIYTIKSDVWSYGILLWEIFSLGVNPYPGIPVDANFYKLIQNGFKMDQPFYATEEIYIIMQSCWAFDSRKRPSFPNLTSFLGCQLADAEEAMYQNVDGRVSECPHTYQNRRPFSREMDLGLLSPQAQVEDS
Chain of Receptor-type tyrosine-protein kinase FLT3 (Homo sapiens), P36888 [UNDEFINED MUTATION] (P36888 whole entry, looked up, change not shown): as the sequence (P36888 whole entry) above
Chain of Serine/threonine-protein kinase SIK3 (Homo sapiens) (Q9Y2K2 whole entry, looked up): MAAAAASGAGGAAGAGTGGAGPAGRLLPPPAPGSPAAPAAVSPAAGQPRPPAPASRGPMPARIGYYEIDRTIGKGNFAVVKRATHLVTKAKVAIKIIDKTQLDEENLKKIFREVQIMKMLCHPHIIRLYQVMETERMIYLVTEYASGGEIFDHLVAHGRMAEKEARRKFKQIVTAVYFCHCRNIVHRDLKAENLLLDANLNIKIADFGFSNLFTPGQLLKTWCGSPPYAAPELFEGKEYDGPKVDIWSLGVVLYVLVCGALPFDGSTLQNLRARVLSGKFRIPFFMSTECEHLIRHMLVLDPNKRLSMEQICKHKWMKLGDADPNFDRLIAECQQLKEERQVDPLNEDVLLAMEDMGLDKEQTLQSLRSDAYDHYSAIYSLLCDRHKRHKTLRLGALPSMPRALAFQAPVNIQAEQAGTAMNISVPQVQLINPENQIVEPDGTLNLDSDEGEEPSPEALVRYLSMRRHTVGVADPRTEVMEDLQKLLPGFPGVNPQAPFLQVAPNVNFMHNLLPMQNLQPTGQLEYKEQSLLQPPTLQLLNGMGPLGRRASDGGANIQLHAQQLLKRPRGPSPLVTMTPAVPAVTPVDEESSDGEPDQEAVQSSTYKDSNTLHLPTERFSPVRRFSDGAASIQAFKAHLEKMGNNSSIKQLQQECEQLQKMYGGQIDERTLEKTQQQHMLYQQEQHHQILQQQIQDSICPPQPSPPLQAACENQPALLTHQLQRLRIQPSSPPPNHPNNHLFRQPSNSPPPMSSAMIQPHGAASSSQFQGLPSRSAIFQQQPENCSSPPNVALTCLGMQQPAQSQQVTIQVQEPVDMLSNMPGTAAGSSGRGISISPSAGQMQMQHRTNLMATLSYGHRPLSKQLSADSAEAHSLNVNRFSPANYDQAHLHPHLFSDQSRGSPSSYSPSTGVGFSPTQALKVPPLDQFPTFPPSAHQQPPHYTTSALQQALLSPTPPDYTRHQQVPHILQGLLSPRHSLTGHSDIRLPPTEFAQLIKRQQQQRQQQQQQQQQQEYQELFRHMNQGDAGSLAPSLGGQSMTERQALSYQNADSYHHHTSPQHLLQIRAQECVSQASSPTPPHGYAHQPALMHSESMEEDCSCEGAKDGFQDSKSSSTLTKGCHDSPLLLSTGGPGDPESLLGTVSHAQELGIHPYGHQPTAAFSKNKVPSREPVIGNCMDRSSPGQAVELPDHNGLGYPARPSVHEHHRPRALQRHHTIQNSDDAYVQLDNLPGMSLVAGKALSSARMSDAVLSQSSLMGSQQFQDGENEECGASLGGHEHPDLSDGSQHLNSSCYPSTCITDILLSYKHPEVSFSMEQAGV
Chain of Tyrosine-protein kinase Srms (Homo sapiens) (Q9H3Y6 whole entry): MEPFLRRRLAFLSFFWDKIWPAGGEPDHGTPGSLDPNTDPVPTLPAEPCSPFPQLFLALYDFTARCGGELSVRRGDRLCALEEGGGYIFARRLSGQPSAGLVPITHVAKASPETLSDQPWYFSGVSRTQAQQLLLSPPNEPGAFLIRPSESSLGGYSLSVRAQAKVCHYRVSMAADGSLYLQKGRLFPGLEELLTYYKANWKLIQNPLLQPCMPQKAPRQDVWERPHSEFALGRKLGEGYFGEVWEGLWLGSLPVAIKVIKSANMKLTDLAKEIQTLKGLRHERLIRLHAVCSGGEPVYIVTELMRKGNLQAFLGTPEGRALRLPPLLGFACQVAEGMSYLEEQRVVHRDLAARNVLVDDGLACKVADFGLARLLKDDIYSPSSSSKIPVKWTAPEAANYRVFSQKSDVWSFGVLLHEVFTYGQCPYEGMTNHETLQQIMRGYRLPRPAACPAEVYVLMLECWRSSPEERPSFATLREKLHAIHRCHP
Chain of Phosphatidylinositol 4,5-bisphosphate 3-kinase catalytic subunit alpha isoform (Homo sapiens), P42336 [H1047L] (P42336 whole entry H1047L, canonical isoform): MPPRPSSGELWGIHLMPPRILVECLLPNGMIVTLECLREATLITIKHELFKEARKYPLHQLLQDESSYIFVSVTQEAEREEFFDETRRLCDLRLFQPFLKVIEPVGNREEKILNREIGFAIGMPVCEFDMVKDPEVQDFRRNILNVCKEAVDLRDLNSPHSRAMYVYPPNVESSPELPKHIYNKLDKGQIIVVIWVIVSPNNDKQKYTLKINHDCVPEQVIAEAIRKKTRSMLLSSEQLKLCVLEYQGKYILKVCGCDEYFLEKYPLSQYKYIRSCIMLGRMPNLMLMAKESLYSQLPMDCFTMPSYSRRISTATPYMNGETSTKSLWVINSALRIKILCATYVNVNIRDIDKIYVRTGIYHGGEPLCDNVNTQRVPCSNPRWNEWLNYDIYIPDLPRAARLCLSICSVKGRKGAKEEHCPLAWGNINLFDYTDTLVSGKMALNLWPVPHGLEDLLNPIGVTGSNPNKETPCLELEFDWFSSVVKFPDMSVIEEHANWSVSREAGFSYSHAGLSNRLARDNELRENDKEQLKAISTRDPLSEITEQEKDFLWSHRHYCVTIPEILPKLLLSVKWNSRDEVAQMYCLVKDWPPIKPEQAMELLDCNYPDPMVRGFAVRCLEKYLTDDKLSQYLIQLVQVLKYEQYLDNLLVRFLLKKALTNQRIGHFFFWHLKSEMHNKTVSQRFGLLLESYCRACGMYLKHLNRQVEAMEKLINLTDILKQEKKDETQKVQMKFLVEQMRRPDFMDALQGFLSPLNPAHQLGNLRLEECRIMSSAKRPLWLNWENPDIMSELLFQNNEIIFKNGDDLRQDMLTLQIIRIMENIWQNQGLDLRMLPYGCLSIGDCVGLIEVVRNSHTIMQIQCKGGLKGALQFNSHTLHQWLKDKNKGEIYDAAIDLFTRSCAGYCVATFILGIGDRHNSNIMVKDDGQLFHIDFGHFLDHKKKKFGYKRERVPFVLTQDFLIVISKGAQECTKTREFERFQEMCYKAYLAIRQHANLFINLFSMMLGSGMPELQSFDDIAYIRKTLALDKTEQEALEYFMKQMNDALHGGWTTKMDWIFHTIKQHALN
Chain of Serine/threonine-protein kinase PLK2 (Homo sapiens) (Q9NYY3 whole entry, looked up): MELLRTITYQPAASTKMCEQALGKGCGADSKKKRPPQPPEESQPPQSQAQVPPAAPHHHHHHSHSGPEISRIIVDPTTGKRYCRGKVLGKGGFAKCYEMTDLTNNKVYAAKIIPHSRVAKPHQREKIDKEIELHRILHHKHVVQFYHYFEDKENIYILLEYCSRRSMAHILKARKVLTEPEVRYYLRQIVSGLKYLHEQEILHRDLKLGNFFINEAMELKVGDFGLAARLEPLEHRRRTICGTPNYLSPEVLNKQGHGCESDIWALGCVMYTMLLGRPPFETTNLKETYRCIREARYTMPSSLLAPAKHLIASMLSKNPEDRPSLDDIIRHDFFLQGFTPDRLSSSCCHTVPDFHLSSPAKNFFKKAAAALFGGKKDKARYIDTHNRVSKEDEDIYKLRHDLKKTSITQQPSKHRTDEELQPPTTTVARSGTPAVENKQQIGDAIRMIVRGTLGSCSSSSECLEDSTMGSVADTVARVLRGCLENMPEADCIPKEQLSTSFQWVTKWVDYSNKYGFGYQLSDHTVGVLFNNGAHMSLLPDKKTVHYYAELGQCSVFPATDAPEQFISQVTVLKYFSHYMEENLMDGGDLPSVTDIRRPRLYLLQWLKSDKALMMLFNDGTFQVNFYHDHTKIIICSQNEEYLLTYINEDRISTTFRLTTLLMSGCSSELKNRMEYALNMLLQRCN

Cc1nc(C2CCN(C(=O)c3ccc(OC(F)(F)F)cc3N)CC2)c2ncc(N3CCN(C)CC3)cc2n1 [BAY-693]
inactive: residual activity [1] 100% | residual activity [2] 74% | residual activity [3] 98% | residual activity [4] 100% | residual activity [5] 95% | residual activity [6] 87% | residual activity [7] 91% | residual activity [8] 100% | residual activity [9] 74% | residual activity [10] 100% | residual activity [11] 100% | residual activity [12] 100% | inhibition [13] -1.38% | residual activity [14] 89%

CN1CCN(c2cnc3c(C4CCN(C(=O)c5ccc(OC(F)(F)F)cc5N)CC4)ncnc3c2)CC1 [BAY-885]
inactive: residual activity [1] 100% | residual activity [2] 78% | residual activity [3] 100% | residual activity [4] 100% | residual activity [5] 94% | residual activity [6] 100% | residual activity [7] 100% | residual activity [8] 100% | residual activity [9] 93% | residual activity [10] 100% | residual activity [11] 97% | residual activity [12] 88% | inhibition [13] -4.69% | residual activity [14] 94%
